According to US8314098B2, “Pyrazolo-pyrimidine compounds” (Ajinomoto Co., Inc., priority 2008, dated 2012):

Test system: IL-12p70 (the complex of IL-12p35 and p40)
Assay: IL-12p70 production inhibition in macrophages derived from mouse abdomen (IFN-γ/SAC stimulation, ELISA)
Assay type: cell-based
Settings: Macrophage; mouse (Balb/c) abdominal macrophages, 100 ng/mL mouse IFN-γ + 0.05% SAC, overnight; TFA salts tested where prepared as such; read-out: IL-12p70-Inhibitory Activity IC50
Protocol: (§1) One milliliter each of a 3% (w/v) thioglycolate solution was intraperitoneally administered to mice (female Balb/c mice), the abdominal cells of each mouse were recovered after 5 or 6 days from the administration of the thioglycolate solution and the adhesive cells were collected and used in the exaluation procedures. To a culture medium containing such adhesive cells, there were added 100 ng/mL of mouse interferon-γ and a 0.05% (v/v) liquid containing killed cells derived from Staphylococcus aureus Cowan I strain (SAC) and a candidate compound and then the mixture was cultivated overnight. After the completion of the cultivation, the survival ratios were determined, there were quantitatively determined the quantities of IL-12p70 (the complex of IL-12p35 and p40) and IL-12p40 or TNF-α according to the ELISA assays while making use of the recovered supernatant of the culture medium and the 50% production-inhibitory concentration (IC50) was calculated for each case (see Table 1 and Tables 1-9 for IL-12p70 and TNF-α and Tables 1 to 10 for IL-12p40).

| Compound | IC50 [nM] |
| --- | --- |
| C(=N\Nc1cc(N2CCOCC2)n2ncc(-c3ccccn3)c2n1)/c1c[nH]c2ccccc12 [Compound 88, N-(1H-indol-3-yl-methylidene)-N′-(7-morpholin-4-yl-3-pyridin-2-yl-pyrazolo[1,5-a]pyrimidin-5-yl)-hydrazine] | 420 |
| Cc1cccc(/C=N/Nc2cc(N3CCOCC3)n3nc(-c4ccccn4)cc3n2)c1 [Compound 20, N-(3-methyl-benzylidene)-N′-(7-morpholin-4-yl-2-pyridin-2-yl-pyrazolo[1,5-a]pyrimidin-5-yl)-hydrazine] | 8 |
| Clc1ccccc1/C=N/Nc1cc(N2CCOCC2)n2nc(-c3ccccc3)cc2n1 [Compound 25, N-(2-chloro-benzylidene)-N′-(7-morpholin-4-yl-2-phenyl-pyrazolo[1,5-a]pyrimidin-5-yl)-hydrazine] | 150 |
| Clc1cccc(/C=N/Nc2cc(N3CCOCC3)n3nc(-c4ccccc4)cc3n2)c1 [Compound 26, N-(3-chloro-benzylidene)-N′-(7-morpholin-4-yl-2-phenyl-pyrazolo[1,5-a]pyrimidin-5-yl)-hydrazine] | 120 |
| C(=N\Nc1cc(N2CCOCC2)n2nc(-c3ccc(N4CCOCC4)nc3)cc2n1)/c1c[nH]c2ccccc12 [Compound 86, N-(1H-indol-3-yl-methylidene)-N′-[7-morpholin-4-yl-2-(6-morpholin-4-yl-pyridin-3-yl)-pyrazolo[1,5-a]pyrimidin-5-yl]-hydrazine] | 1.8 |
| Cc1nc2sccn2c1/C=N/Nc1cc(N2CCOCC2)n2nc(-c3ccccc3)cc2n1 [Compound 75, N-(6-methy-imidazo[2,1-b]thiazole-5-methylidene)-N′-(7-morpholin-4-yl-2-phenyl-pyrazolo[1,5-a]pyrimidin-5-yl)-hydrazine] | 290 |
| Cc1cccc(/C=N/Nc2cc(N3CCOCC3)n3nc(OCCOc4ccccc4)cc3n2)c1 [Compound 37, N-(3-methyl-benzylidene)-N′-[7-morpholin-4-yl-2-(2-phenoxy-ethoxy)-pyrazolo[1,5-a]pyrimidin-5-yl]-hydrazine] | 110 |
| COc1ccccc1/C=N/Nc1cc(N2CCOCC2)n2nc(-c3ccccc3)cc2n1 [Compound 28, N-(2-methoxy-benzylidene)-N′-(7-morpholin-4-yl-2-phenyl-pyrazolo[1,5-a]pyrimidin-5-yl)-hydrazine] | 160 |
| COc1ccc(/C=N/Nc2cc(N3CCOCC3)n3nc(-c4ccncc4)cc3n2)cc1C [Compound 92, N-(4-methoxy-3-methyl-benzylidene)-N′-(7-morpholin-4-yl-2-pyridin-4-yl-pyrazolo[1,5-a]pyrimidin-5-yl)-hydrazine] | 44 |
| CC(/C=N/Nc1cc(N2CCOCC2)n2nc(-c3ccccc3)cc2n1)=C\c1ccccc1 [Compound 63, N-(2-methyl-3-phenyl-alkylidene)-N′-(7-morpholin-4-yl-2-phenyl-pyrazolo[1,5-a]pyrimidin-5-yl)-hydrazine] | 320 |
| CN(Cc1ccccc1)Nc1cc(N2CCOCC2)n2nc(-c3ccccc3)cc2n1 [Compound 66, N-benzyl-N-methyl-N′-(7-morpholin-4-yl-2-phenyl-pyrazolo[1,5-a]pyrimidin-5-yl)-hydrazine] | 330 |
| Cc1cccc(/C=N/Nc2cc(N3CCOCC3)n3nc(-c4ccco4)cc3n2)c1 [Compound 33, N-(2-furan-2-yl-7-morpholin-4-yl-pyrazolo[1,5-a]-pyrimidin-5-yl)-N′-(3-methyl-benzylidene)-hydrazine] | 17 |
| Cc1ccccc1/C=N/Nc1cc(N2CCOCC2)n2nc(-c3ccccc3)cc2n1 [Compound 57, N-(2-methyl-benzylidene)-N′-(7-morpholin-4-yl-2-phenyl-pyrazolo[1,5-a]pyrimidin-5-yl)-hydrazine] | 420 |

Now from value to compound:

| IC50 [nM] | Compound |
| --- | --- |
| 130 | Cc1cccc(/C=N/Nc2cc(N3CCOCC3)n3nc(OCc4ccccc4)cc3n2)c1 [Compound 134, N-(2-benzyloxy-7-morpholin-4-yl-pyrazolo[1,5-a]pyrimidin-5-yl)-N′-(3-methyl-benzylidene)-hydrazine] |
| 130 | Cc1cccc(/C=N/Nc2cc(N3CCOCC3)n3nc(C(=O)N(C)c4ccncc4)cc3n2)c1 [Compound 135, 5-[N-(3-methyl-benzylidene)-hydrazino]-7-morpholin-4-yl-pyrazolo[1,5-a]pyrimidine-2-carboxylic acid methyl-pyridin-4-yl-amide] |
| 37 | Cc1ccc(-c2cc3nc(N/N=C/c4coc5ccccc45)cc(N4CCOCC4)n3n2)cn1 [Compound 111, N-benzofuran-3-yl-methylidene-N′-[2-(6-methyl-pyridin-3-0)-7-morpholin-4-yl-pyrazolo[1,5-a]pyrimidin-5-yl]-hydrazine] |
| 96 | CC(=O)N1CCC(c2cc3nc(N/N=C/c4cccc(C)c4)cc(N4CCOCC4)n3n2)CC1 [Compound 133, N-[2-(1-acetyl-piperidin-4-yl)-7-morpholin-4-yl-pyrazolo-[1,5-a]pyrimidin-5-yl]-N′-(3-methyl-benzylidene)-hydrazine] |
| 98 | C(=N\Nc1cc(N2CCOCC2)n2nc(-c3ccncc3)cc2n1)/c1ccc2c(c1)OCCO2 [Compound 113, N-(2,3-dihydro-benzo[1,4]dioxin-6-yl-methylidene)-N′-(7-morpholin-4-yl-2-pyridin-4-yl-pyrazolo[1,5-a]pyrimidin-5-yl)-hydrazine] |
| 55 | CCc1cccc(/C=N/Nc2cc(N3CCOCC3)n3nc(-c4cccnc4)cc3n2)c1 [Compound 115] |
| 40 | C(=N\Nc1cc(N2CCOCC2)n2nc(-c3ccncn3)cc2n1)/c1c[nH]c2ccccc12 [Compound 120, N-(1H-indol-3-yl-methylidene)-N-(7-morpholin-4-yl-2-pyrimidin-4-yl-pyrazolo[1,5-a]pyrimidin-5-yl)-hydrazine] |
| 470 | Cc1cccc(/C=N/Nc2cc(N3CCOCC3)n3nc(C4CCNCC4)cc3n2)c1 [Compound 132, N-(3-methyl-benzylidene)-N′-(7-morpholin-4-yl-2-piperidin-4-yl-pyrazolo[1,5-a]pyrimidin-5-yl)-hydrazine] |
| 380 | C(=N\Nc1cc(N2CCOCC2)n2nc(N3CCCCC3)cc2n1)/c1c[nH]c2ccccc12 [Compound 101, N-(1H-indol-3-yl-methylidene)-N-(7-morpholin-4-yl-2-piperidin-1-yl-pyrazolo[1,5-a]pyrimidin-5-yl)-hydrazine] |
| 100 | Cc1cccc(/C=N/Nc2cc(N3CCOCC3)n3nc(C4CCN(C(=O)OCc5ccccc5)CC4)cc3n2)c1 [Compound 131, N-[2-(1-benzyloxy-carbonyl-piperidin-4-yl)-7-morpholin-4-yl-pyrazolo[1,5-a]pyrimidin-5-yl]-N′-(3-methyl-benzylidene)-hydrazine] |
| 7.5 | Cc1ccc(-c2cc3nc(N/N=C/c4c[nH]c5ccccc45)cc(N4CCOCC4)n3n2)cn1 [Compound 112, N-(1H-indol-3-yl-methylidene)-N′-[2-(6-methyl-pyridin-3-yl)-7-morpholin-4-yl-pyrazolo[1,5-a]pyrimidin-5-yl]-hydrazine] |
| 360 | Cc1cccc(/C=N/Nc2cc(N3CCOCC3)n3nc(N4CCCCC4)cc3n2)c1 [Compound 100, N-(3-methyl-benzylidene)-N-(7-morpholin-4-yl-2-piperidin-1-yl-pyrazolo[1,5-a]pyrimidin-5-yl)-hydrazine] |
| 36 | C(=N\Nc1cc(N2CCOCC2)n2nc(-c3ccncc3)cc2n1)/c1ccc2occc2c1 [Compound 125, N-benzofuran-5-yl-methylidene-N′-(7-morpholin-4-yl-2-pyridin-4-yl-pyrazolo[1,5-a]pyrimidin-5-yl)-hydrazine] |
| 89 | Cc1[nH]c2ccc(/C=N/Nc3cc(N4CCOCC4)n4nc(-c5cccnc5)cc4n3)cc2c1C [Compound 105, N-(2,3-dimethyl-1H-indol-5-yl-methylidene)-N-(7-morpholin-4-yl-2-pyridin-3-yl-pyrazolo[1,5-a]pyrimidin-5-yl)-hydrazine] |
| 490 | C(=N\Nc1cc(N2CCOCC2)n2nc(-c3ccncc3)cc2n1)/c1csc2ccccc12 [Compound 109, N-benzo[b]thiophen-3-yl-methylidene-N′-(7-morpholin-4-yl-2-pyridin-4-yl-pyrazolo[1,5-a]pyrimidin-5-yl)-hydrazine] |
| 170 | Cc1[nH]c2ccc(/C=N/Nc3cc(N4CCOCC4)n4nc(-c5cnccn5)cc4n3)cc2c1C [Compound 107, N-(2,3-dimethyl-1H-indol-5-yl-methylidene)-N-(7-morpholin-4-yl-2-pyrazin-2-yl-pyrazolo[1,5-a]pyrimidin-5-yl)-hydrazine] |
| 160 | C(=N\Nc1cc(N2CCOCC2)n2nc(-c3cccnc3)cc2n1)/c1ccc2[nH]ccc2c1 [Compound 103, N-(1H-indol-5-yl-methylidene)-N-(7-morpholin-4-yl-2-pyridin-3-yl-pyrazolo[1,5-a]pyrimidin-5-yl)-hydrazine] |
| 7.3 | Cc1cccc(/C=N/Nc2cc(N3CCOCC3)n3nc(-c4ccc(C)nc4)cc3n2)c1 [Compound 110, N-(3-methyl-benzylidene)-N′-[2-(6-methyl-pyridin-3-yl)-7-morpholin-4-yl-pyrazolo[1,5-a]pyrimidin-5-yl]-hydrazine] |

Test system: TNF-α
Assay: TNF-α production inhibition in macrophages derived from mouse abdomen (IFN-γ/SAC stimulation, ELISA)
Assay type: cell-based
Settings: Macrophage; mouse (Balb/c) abdominal macrophages, 100 ng/mL mouse IFN-γ + 0.05% SAC, overnight; TFA salts tested where prepared as such; read-out: TNF-α-Inhibitory Activity IC50
Protocol: as §1

| IC50 [nM] | Compound |
| --- | --- |
| > 10000 | C(=N\Nc1cc(N2CCOCC2)n2ncc(-c3ccccn3)c2n1)/c1c[nH]c2ccccc12 [Compound 88, N-(1H-indol-3-yl-methylidene)-N′-(7-morpholin-4-yl-3-pyridin-2-yl-pyrazolo[1,5-a]pyrimidin-5-yl)-hydrazine] |
| > 10000 | Cc1cccc(/C=N/Nc2cc(N3CCOCC3)n3nc(-c4ccccn4)cc3n2)c1 [Compound 20, N-(3-methyl-benzylidene)-N′-(7-morpholin-4-yl-2-pyridin-2-yl-pyrazolo[1,5-a]pyrimidin-5-yl)-hydrazine] |
